≈ marks a conversion by molar mass, not a printed value. Read-outs that look alike come from different tables or passages of the source.
Columns and labels:
A-204 rhabdomysarcoma = test: Inhibition of colony formation by human tumor cell line A-204 (rhabdomysarcoma), long-term exposure; format: cell-based; conditions: 9 days
Description: (§1) Cytotoxic activity of O-HMM against in vitro human tumor cells was measured as inhibition of colony formation and the results expressed as a ratio of the number of colonies in test dishes to number of control dishes, times 100 (Table 4).
(§2) Inhibition of colony formation by human tumor
(§3) ^a Percent survival as measured by the number of colonies in test

A-498 renal carcinoma = test: Inhibition of colony formation by human tumor cell line A-498 (renal carcinoma), long-term exposure; format: cell-based; conditions: 9 days
Description: as §1, §2, §3

A-101D melanoma = test: Inhibition of colony formation by human tumor cell line A-101D (melanoma), long-term exposure; format: cell-based; conditions: 9 days
Description: as §1, §2, §3

A-549 lung carcinoma = test: Inhibition of colony formation by human tumor cell line A-549 (lung carcinoma), long-term exposure; format: cell-based; conditions: 9 days
Description: as §1, §2, §3

[1] = Solubility in lipid and aqueous media; format: physicochemical
[2] = Rearrangement of O-HMM to HDT (chemical stability); format: physicochemical; conditions: for degraded at 4 h / degraded at 24 h / degraded at 26 h / degraded at 20 h: read-out: HDT (formed by rearrangement, determined by NMR); for remaining at 4 h / remaining at 24 h / remaining at 26 h / remaining at 20 h: read-out: HMM--NO (remaining, determined by NMR); for degraded at 24 h / remaining at 24 h: h2o; for degraded at 20 h / remaining at 20 h: 135° C. sealed tube
Text: Solvent Temp. Time HMM--NO HDT
^a Yields determined by NMR
^b Sealed tube reaction. Solutions degassed with argon and then seale
^d 0.1 equiv. mchlorobenzoic acid
^e 0.1 equiv. pnitrobenzoic acid
^f 0.05 M HOAc/NaOAc pH 5

rats = test: Acute toxic effects after intraperitoneal administration in rats; format: in vivo, Male Harlen-Sprague-Dawley rats; conditions: rat; 20 mg/kg intraperitoneal
Description: Male Harlen-Sprague-Dawley rats, 200-300 g were given 20 mg/kg of O-HMM by intraperitoneal injection (control rats received saline vehicle only) and their urine collected for two consecutive 24 hr. periods.

male BDF1 mice = test: Toxicity study (LD50 study) in mice; format: in vivo; conditions: IP
Description: These effects diminished over a period of about 3-5 hours until the animal appeared normal and resumed activity.

[3] = system: A-549 lung carcinoma, A-101D melanoma, A-498 renal carcinoma and A-204 rhabdomysarcoma; test: Comparison of O-HMM with HMM in the human tumor colony formation test systems; format: cell-based; conditions: vs HMM; all four cell lines
Description: as §1

[4] = h2o/h+ (0.05 m hoac/naoac), pH 5, H2O/H+ (0.05 M HOAc/NaOAc pH 5), 25° C.
[5] = h2o/h+ (0.05 m hoac/naoac), pH 5, H2O/H+ (0.05 M HOAc/NaOAc pH 5), 50° C.
[6] = hccl3/h+ (m-chlorobenzoic acid), HCCl3/H+ (0.1 equiv. m-chlorobenzoic acid), 25° C.
[7] = hccl3/h+ (m-chlorobenzoic acid), HCCl3/H+ (0.1 equiv. m-chlorobenzoic acid), 50° C.
[8] = hccl3/h+ (m-chlorobenzoic acid), HCCl3/H+ (0.1 equiv. m-chlorobenzoic acid)
[9] = hccl3/h+ (p-nitrobenzoic acid), HCCl3/H+ (0.1 equiv. p-nitrobenzoic acid), 50° C.

With `CN(C)Oc1nc(N(C)C)nc(N(C)C)n1` [O-HMM, 2,4-bis(dimethylamino)-6-[(dimethylamino)oxy]-1,3,5-triazine] the “inhibition of colony formation” value (A-204 rhabdomysarcoma; 200 μg/ml) was “Complete inhibition”, the viability at 10 µg/mL (A-204 rhabdomysarcoma; Homo sapiens, A204, 216 h, 10 ug/ml, read-out: Percent survival (number of colonies in test dishes to colonies in control dishes times 100)) was 99 ± 26% and the viability at 20 µg/mL (A-204 rhabdomysarcoma; Homo sapiens, A204, 216 h, 20 ug/ml, read-out: Percent survival (number of colonies in test dishes to colonies in control dishes times 100)) was 87 ± 13%. The viability at 40 µg/mL (A-204 rhabdomysarcoma; Homo sapiens, A204, 216 h, 40 ug/ml, read-out: Percent survival (number of colonies in test dishes to colonies in control dishes times 100)) was 76 ± 17%, the viability at 60 µg/mL (A-204 rhabdomysarcoma; Homo sapiens, A204, 216 h, 60 ug/ml, read-out: Percent survival (number of colonies in test dishes to colonies in control dishes times 100)) was 48 ± 21% and the viability at 80 µg/mL (A-204 rhabdomysarcoma; Homo sapiens, A204, 216 h, 80 ug/ml, read-out: Percent survival (number of colonies in test dishes to colonies in control dishes times 100)) was 20 ± 17%. It also gave a viability at 100 µg/mL (A-204 rhabdomysarcoma; Homo sapiens, A204, 216 h, 100 ug/ml, read-out: Percent survival (number of colonies in test dishes to colonies in control dishes times 100)) of 4 ± 4%, a viability at 120 µg/mL (A-204 rhabdomysarcoma; Homo sapiens, A204, 216 h, 120 ug/ml, read-out: Percent survival (number of colonies in test dishes to colonies in control dishes times 100)) of 1 ± 2% and a viability at 200 µg/mL (A-204 rhabdomysarcoma; Homo sapiens, A204, 216 h, 200 ug/ml, read-out: Percent survival (number of colonies in test dishes to colonies in control dishes times 100)) of 0%. The “inhibition of colony formation” value (A-498 renal carcinoma; 200 μg/ml) was “Complete inhibition”, the viability at 10 µg/mL (A-498 renal carcinoma; Homo sapiens, A498, 216 h, 10 ug/ml, read-out: Percent survival (number of colonies in test dishes to colonies in control dishes times 100)) was 93 ± 3% and the viability at 20 µg/mL (A-498 renal carcinoma; Homo sapiens, A498, 216 h, 20 ug/ml, read-out: Percent survival (number of colonies in test dishes to colonies in control dishes times 100)) was 83 ± 7%. The viability at 40 µg/mL (A-498 renal carcinoma; Homo sapiens, A498, 216 h, 40 ug/ml, read-out: Percent survival (number of colonies in test dishes to colonies in control dishes times 100)) was 67 ± 14%, the viability at 60 µg/mL (A-498 renal carcinoma; Homo sapiens, A498, 216 h, 60 ug/ml, read-out: Percent survival (number of colonies in test dishes to colonies in control dishes times 100)) was 44 ± 23% and the viability at 80 µg/mL (A-498 renal carcinoma; Homo sapiens, A498, 216 h, 80 ug/ml, read-out: Percent survival (number of colonies in test dishes to colonies in control dishes times 100)) was 24 ± 18%. For the same compound, the viability at 100 µg/mL (A-498 renal carcinoma; Homo sapiens, A498, 216 h, 100 ug/ml, read-out: Percent survival (number of colonies in test dishes to colonies in control dishes times 100)) was 14 ± 9%, the viability at 120 µg/mL (A-498 renal carcinoma; Homo sapiens, A498, 216 h, 120 ug/ml, read-out: Percent survival (number of colonies in test dishes to colonies in control dishes times 100)) was 5 ± 6% and the viability at 200 µg/mL (A-498 renal carcinoma; Homo sapiens, A498, 216 h, 200 ug/ml, read-out: Percent survival (number of colonies in test dishes to colonies in control dishes times 100)) was 0%. For the same compound, the “inhibition of colony formation” value (A-101D melanoma; 200 μg/ml) was “Complete inhibition”, the viability at 10 µg/mL (A-101D melanoma; Homo sapiens, A101D, 216 h, 10 ug/ml, read-out: Percent survival (number of colonies in test dishes to colonies in control dishes times 100)) was 95 ± 10% and the viability at 20 µg/mL (A-101D melanoma; Homo sapiens, A101D, 216 h, 20 ug/ml, read-out: Percent survival (number of colonies in test dishes to colonies in control dishes times 100)) was 82 ± 9%. The viability at 40 µg/mL (A-101D melanoma; Homo sapiens, A101D, 216 h, 40 ug/ml, read-out: Percent survival (number of colonies in test dishes to colonies in control dishes times 100)) was 50 ± 15%, the viability at 60 µg/mL (A-101D melanoma; Homo sapiens, A101D, 216 h, 60 ug/ml, read-out: Percent survival (number of colonies in test dishes to colonies in control dishes times 100)) was 17 ± 16% and the viability at 80 µg/mL (A-101D melanoma; Homo sapiens, A101D, 216 h, 80 ug/ml, read-out: Percent survival (number of colonies in test dishes to colonies in control dishes times 100)) was 1 ± 1%. It also gave a viability at 100 µg/mL (A-101D melanoma; Homo sapiens, A101D, 216 h, 100 ug/ml, read-out: Percent survival (number of colonies in test dishes to colonies in control dishes times 100)) of 0%, a viability at 120 µg/mL (A-101D melanoma; Homo sapiens, A101D, 216 h, 120 ug/ml, read-out: Percent survival (number of colonies in test dishes to colonies in control dishes times 100)) of 0% and a viability at 200 µg/mL (A-101D melanoma; Homo sapiens, A101D, 216 h, 200 ug/ml, read-out: Percent survival (number of colonies in test dishes to colonies in control dishes times 100)) of 0%. The “inhibition of colony formation” value (A-549 lung carcinoma; 200 μg/ml) was “Complete inhibition”, the viability at 10 µg/mL (A-549 lung carcinoma; Homo sapiens, A549, 216 h, 10 ug/ml, read-out: Percent survival (number of colonies in test dishes to colonies in control dishes times 100)) was 91 ± 6% and the viability at 20 µg/mL (A-549 lung carcinoma; Homo sapiens, A549, 216 h, 20 ug/ml, read-out: Percent survival (number of colonies in test dishes to colonies in control dishes times 100)) was 94 ± 4%. For the same compound, the viability at 40 µg/mL (A-549 lung carcinoma; Homo sapiens, A549, 216 h, 40 ug/ml, read-out: Percent survival (number of colonies in test dishes to colonies in control dishes times 100)) was 69 ± 11%, the viability at 60 µg/mL (A-549 lung carcinoma; Homo sapiens, A549, 216 h, 60 ug/ml, read-out: Percent survival (number of colonies in test dishes to colonies in control dishes times 100)) was 9 ± 14% and the viability at 80 µg/mL (A-549 lung carcinoma; Homo sapiens, A549, 216 h, 80 ug/ml, read-out: Percent survival (number of colonies in test dishes to colonies in control dishes times 100)) was 0%. The viability at 100 µg/mL (A-549 lung carcinoma; Homo sapiens, A549, 216 h, 100 ug/ml, read-out: Percent survival (number of colonies in test dishes to colonies in control dishes times 100)) was 0%, the viability at 120 µg/mL (A-549 lung carcinoma; Homo sapiens, A549, 216 h, 120 ug/ml, read-out: Percent survival (number of colonies in test dishes to colonies in control dishes times 100)) was 0% and the viability at 200 µg/mL (A-549 lung carcinoma; Homo sapiens, A549, 216 h, 200 ug/ml, read-out: Percent survival (number of colonies in test dishes to colonies in control dishes times 100)) was 0%. For the same compound, the solubility ([1]; pentane, organic solvent or mixture, read-out: solubility in lipid medium (pentane)) was 29 mg/mL (≈ 128 mM), the solubility ([1]; water, read-out: solubility in aqueous medium (water)) was 19 mg/mL (≈ 84 mM) and the degraded at 4 h ([2]; h2o/h+ (0.01 m hcl), 25° C.) was 100%. For the same compound, the remaining at 4 h ([2]; h2o/h+ (0.01 m hcl), 25° C.) was 0%, the degraded at 4 h [2, 4] was 79% and the remaining at 4 h [2, 4] was 21%. It also gave a degraded at 4 h [2, 5] of 100%, a remaining at 4 h [2, 5] of 0% and a degraded at 24 h ([2]; 25° C.) of 0%. The remaining at 24 h ([2]; 25° C.) was 100%, the degraded at 24 h ([2]; 50° C.) was 9% and the remaining at 24 h ([2]; 50° C.) was 91%. The degraded at 26 h ([2]; hccl3, HCCl3, 25° C.) was 3%, the remaining at 26 h ([2]; hccl3, HCCl3, 25° C.) was 97% and the degraded at 26 h ([2]; hccl3, HCCl3, 50° C.) was 37%. It also gave a remaining at 26 h ([2]; hccl3, HCCl3, 50° C.) of 63%, a degraded at 20 h ([2]; hccl3, HCCl3) of 100% and a remaining at 20 h ([2]; hccl3, HCCl3) of 0%. It also gave a degraded at 26 h [2, 6] of 66%, a remaining at 26 h [2, 6] of 34% and a degraded at 26 h [2, 7] of 97%. For the same compound, the remaining at 26 h [2, 7] was 3%, the degraded at 20 h [2, 8] was 100% and the remaining at 20 h [2, 8] was 0%. For the same compound, the degraded at 26 h [2, 9] was 100%, the remaining at 26 h [2, 9] was 0% and the degraded at 20 h ([2]; pentane) was 100%. For the same compound, the remaining at 20 h ([2]; pentane) was 0%, the acute toxic effects (rats) was “No acute toxic effects were observed” and the “onset of changes in the mouse's behavior after injection” value (male BDF1 mice) was under 1 min. For the same compound, the “recovery of the fourth mouse” value (male BDF1 mice; 1000 mg/kg) was “recovering completely”, the “time of recovery (dose dependence)” value (male BDF1 mice; mouse) was “dose-dependent time of recovery” and the “time until effects diminished and animal appeared normal” value (male BDF1 mice; mouse) was 3 to 5 h. The time to death (male BDF1 mice; mouse, 1000 mg/kg) was at most 3 min, the deaths (male BDF1 mice; mouse, 1000 mg/kg, 4 mice) was 3 of the 4 and the “long-term effects (weight loss, hair loss, death rate vs control animals)” value (male BDF1 mice; mouse, 60- and 120-day observation) was “no long-term effects”. The “recovery of the remaining mice in the other groups” value (male BDF1 mice; mouse, 500, 250, 100, 50 and 25 mg/kg) was “recovered completely in a few hours”, the “toxic phenomenon (flaccid paralysis)” value (male BDF1 mice; mouse, 1000-25 mg/kg) was “dose dependent toxic phenomenon showing a decreasing degree of a flaccid paralysis with decreasing dose” and the absorption (male BDF1 mice; mouse, inferred from rapid onset of toxic effect) was “very rapid absorption”. The “activity compared with HMM in the human tumor colony formation test systems” value [3] was “consistently greater activity than HMM”.

From patent publication US4576945A, “Hexaalkylmelamine-amino-oxy compounds” (priority 1984, dated 1986)
